These results are taken from ChEMBL document CHEMBL1122920, “Synthesis and pharmacological evaluation of cis-2,3,3a,4,5,6,7,7a-octahydro-3-oxoisoxazolo[5,4-c]pyridine: a structural analogue of the GABA agonist THIP” (J Med Chem, 1985).

In one assay the test system is Mus musculus. In words: Tested for the antagonism of bicuculline -induced convulsions in female mice intraperitoneally. The format is functional. Conditions: ip, read-out: ID50 (the source's name).
Assay [1] deals with GABA-A receptor; anion channel. In words: Displacement of [3H]- muscimol in cerebellar tissue of male rats.
The species entered for the next assay is Rattus norvegicus. In words: Tested for its GABA agonistic activity against spontaneous firing in explants from cerebellum of 2-4 day old rats. It counts as functional.

Some results are limits rather than exact numbers.

Turning to `O=C1NOC2CNCCC12` (cis isomer), the ED50 in the assay with Mus musculus is greater than 56 mg/kg. The molecule further gave a half-inhibitory concentration (IC50) in assay [1] greater than 1000 nM.
Take `Oc1noc2c1CCNC2` [GABOXADOL]: in the assay on Mus musculus, the ED50 came to 1.9 mg/kg.
Regarding `NCc1cc(O)no1` [MUSCIMOL], the ED50 in the assay with Mus musculus worked out at 0.76 mg/kg. Also, the “Decrease of spontaneous firing rate” value in the assay listed under Rattus norvegicus is recorded as “>=1e-06 M”. The molecule further gave a half-inhibitory concentration (IC50) in assay [1] of 3 nM.
